Source: PMC12679610, “Impact of supersaturation on growth, critical radius, and size in neomycin nanoparticle crystallization using anti-solvent and CTAB” (RSC Advances, 2025)

Tests used:
[1] = Critical nucleus radius calculated from classical nucleation theory (eqn S16); format: physicochemical; details: CTAB 0.6 g kg^−1, 25 °C
Text: This study comprehensively investigated the influence of CTAB surfactant on neomycin crystallization. […] The supersaturation (S), as the primary driving force, directly affects the induction time, critical radius, growth rate, solubility, nanoparticle size, and nucleation mechanism.[33] CTAB operates through selective adsorption on crystalline surfaces, substantially influencing the nucleation pathway.[75,76] […] Quantitative data for these parameters are presented in Table 2, with the growth rate (intensity %) and nanoparticle size data being experimentally derived from DLS analysis.
As previously explored in relation to supersaturation, growth rate, and nanoparticle size (Fig. 16), the experimental results shown in Fig. 17 further illustrate the critical radius, growth kinetics, and nanoparticle size across varying supersaturation levels.[86] Based on data obtained from DLS analysis and critical radius calculations (eqn S16), it is observed that decreasing supersaturation leads to a significant increase in crystal growth rates, resulting in the formation of larger nanoparticles.[14–16,87] […] This phenomenon follows fundamental crystallization kinetics principles where, at high supersaturation levels, the elevated concentration of solute species leads to the formation of a greater number of primary nuclei.[89] Simultaneously, the distribution of solute molecules among these numerous nuclei results in decreased growth rates for crystals, ultimately producing smaller nanoparticles with a […] size distribution.[86] The role of the CTAB stabilizer in this system is particularly crucial. Through surface adsorption mechanisms, CTAB not only prevents nanoparticle aggregation but also precisely modulates growth kinetics, enabling better control over final particle dimensions.[90] These synergistic effects contribute to the formation of colloidally stable nanoparticles with uniform size distributions. An important observation is the direct correlation between nucleation duration and critical particle size, where extended nucleation times cause the formation of smaller particles.[91] Furthermore, dynamic parameters such as agitation rate and controlled shock pulses serve as effective tools for fine-tuning nanoparticle characteristics.[92]

[2] = Interfacial energy from ln tind versus 1/T^3(ln S)^2 plot; format: physicochemical; details: CTAB 0.6 g kg^−1, 25 °C
Protocol: Interfacial energy at the solid–liquid interface, can typically be regarded as an intrinsic property of the system.[100] It is indeed a key parameter strongly influenced by the solvent composition and the presence of surfactants such as CTAB.[29,101] In this study, the effect of CTAB at a constant concentration of 0.6 g kg^−1 on the interfacial energy of the crystallization system of neomycin at various concentrations (20, 30, 40, and 50 g kg^−1) was investigated at a temperature of 25 °C. Key system parameters included the density of neomycin (ρ = 640 kg m^−3), measured using the volume displacement method; the shape factor (f = 0.058)[16,29] and the molar mass (M = 908.88 g mol^−1). […] At various concentrations of neomycin (20, 30, 40, and 50 g kg^−1), a comparison was made between the system stabilized with CTAB and previous studies that utilized PVP as a stabilizer.[29] […] This distinction can be attributed to a significant reduction in surface energy in the presence of CTAB, as well as distinct molecular interactions between neomycin and the cationic surfactant, which subsequently influenced solubility and nucleation behavior.[102] […] The proposed mechanism for this observation includes the effective adsorption of CTAB onto nanoparticle surfaces, alterations in the local solubility of neomycin, and the formation of stable electrical double layers at the interface.[103] Furthermore, increased agitation enhanced mass transfer, improved surfactant distribution, and promoted the formation of stable nuclei, ultimately leading to a significant reduction in surface energy and effective suppression of nanoparticle aggregation.[104]

NC[C@@H]1O[C@H](O[C@H]2[C@@H](O)[C@H](O[C@@H]3[C@@H](O)[C@H](N)C[C@H](N)[C@H]3O[C@H]3O[C@H](CN)[C@@H](O)[C@H](O)[C@H]3N)O[C@@H]2CO)[C@H](N)[C@@H](O)[C@@H]1O.O=S(=O)(O)O [neomycin sulfate]
Critical radius ([1]; 300 rpm, initial neomycin 20 g kg^−1, S 1.18): 1.689 nm
Critical radius ([1]; 300 rpm, initial neomycin 20 g kg^−1, S 1.21): 1.467 nm
Critical radius ([1]; 300 rpm, initial neomycin 20 g kg^−1, S 1.33): 0.981 nm
Critical radius ([1]; 300 rpm, initial neomycin 20 g kg^−1, S 1.45): 0.753 nm
Critical radius ([1]; 300 rpm, initial neomycin 20 g kg^−1, S 1.66): 0.552 nm
Critical radius ([1]; 350 rpm, initial neomycin 30 g kg^−1, S 1.2): 1.534 nm
Critical radius ([1]; 350 rpm, initial neomycin 30 g kg^−1, S 1.25): 1.254 nm
Critical radius ([1]; 350 rpm, initial neomycin 30 g kg^−1, S 1.28): 1.133 nm
Critical radius ([1]; 350 rpm, initial neomycin 30 g kg^−1, S 1.43): 0.782 nm
Critical radius ([1]; 350 rpm, initial neomycin 30 g kg^−1, S 1.67): 0.545 nm
Critical radius ([1]; 400 rpm, initial neomycin 40 g kg^−1, S 1.29): 1.099 nm
Critical radius ([1]; 400 rpm, initial neomycin 40 g kg^−1, S 1.379): 0.957 nm
Critical radius ([1]; 400 rpm, initial neomycin 40 g kg^−1, S 1.48): 0.714 nm
Critical radius ([1]; 400 rpm, initial neomycin 40 g kg^−1, S 1.66): 0.552 nm
Critical radius ([1]; 400 rpm, initial neomycin 40 g kg^−1, S 1.9): 0.436 nm
Critical radius ([1]; 450 rpm, initial neomycin 50 g kg^−1, S 1.351): 0.932 nm
Critical radius ([1]; 450 rpm, initial neomycin 50 g kg^−1, S 1.408): 0.817 nm
Critical radius ([1]; 450 rpm, initial neomycin 50 g kg^−1, S 1.47): 0.726 nm
Critical radius ([1]; 450 rpm, initial neomycin 50 g kg^−1, S 1.666): 0.548 nm
Critical radius ([1]; 450 rpm, initial neomycin 50 g kg^−1, S 1.785): 0.483 nm
Interfacial energy this work ([2]; initial neomycin 20 g kg solvent^−1): 1.33 mJ m^−2
Interfacial energy this work ([2]; initial neomycin 30 g kg solvent^−1): 1.41 mJ m^−2
Interfacial energy this work ([2]; initial neomycin 40 g kg solvent^−1): 1.9 mJ m^−2
Interfacial energy this work ([2]; initial neomycin 50 g kg solvent^−1): 2.14 mJ m^−2
